In patent publication US20250352611A1, “METHODS FOR TREATING CATARACTS USING POLYPEPTIDES” (REJUKON BIOPHARM INC., priority 2022, published 2025):

Tested on: γD (W42D) aggregates in the SH-SY5Y cell
Experiment: γD (W42D) aggregates in SH-SY5Y cells, live imaging and CellProfiler analysis
Assay type: cell-based
Details: 20 uM, added every 4 hours for a total of 24 hours
Procedure: Cells were grown in a 12-well plate (1×10^5 cells per well) for 24 hours and transfected with γD (W42D) plasmid using EZtrans transfection reagent. 24 hours after transfection, Champ peptides RJK001 (final concentration of 20 uM) and RJK0012 (final concentration of 10 uM and 20 uM) were added into SH-SY5Y cell culture medium every 4 hours for a total of 24 hours. The effect of RJK001 and RJK012 polypeptide on the γD (W42D) aggregates in the SH-SY5Y cell mode were analyzed using a custom CellProfiler software. Briefly, cell bodies were then segmented and identified by the GFP fluorescence channel images and tracing outward to the limits of the cytoplasmic (using a diameter cutoff of 100-300 pixels). The cell bodies were used as masks to eliminate imaging artifacts outside of cell boundaries, such as background fluorescence or dead cells. After masking, punctate structures were enhanced by image processing for speckle-like features that were 10 pixels in diameter for SH-SY5Y cells and these punctate structures were then annotated as features such as γD (W42D) puncta. Finally, the total image area which was enclosed in each of the identified features (number of cell and punctate) was calculated and output to spreadsheets. At least 200 cells per sample were analyzed. […]
Granules screen and assay images were segmented and image features quantified using a custom CellProfiler and ImageJ software. […] The effect of RJK001 and RJK012 polypeptide on the γD ([…]) aggregates in the SH-SY5Y cell mode were analyzed using a custom CellProfiler software. Briefly, cell bodies were then segmented and identified by the GFP fluorescence channel images and tracing outward to the limits of the cytoplasmic (using a diameter cutoff of 100-300 pixels). The cell bodies were used as masks to eliminate imaging artifacts outside of cell boundaries, such as background fluorescence or dead cells. […] Finally, the total image area which was enclosed in each of the identified features (number of cell and punctate) was calculated and output to spreadsheets. At least 200 cells per sample were analyzed.

TEPQEESEEEVEEPEERQQTPEVVPDDSGTFYDQTVSNDLE [RJK001, polypeptide with hydrophilic and hydrophobic segment, expressed in E. coli]
number of γD (W42D) aggregates in the SH-SY5Y cell: reduced the number of γD (W42D) aggregates in the SH-SY5Y cell in a time-dependent manner until 12 hours
